Measurements: US20220364990A1, “ANALYSIS OF OSCILLATORY FLUORESCENCE FROM BIOLOGICAL CELLS” (MOLECULAR DEVICES, LLC, priority 2019, published 2022)

Experiments:
[1] = system: Human iPSC-derived neural 3D co-cultures (microBrain 3D spheroids); assay: Calcium oscillation assay in iPSC-derived neural 3D spheroids (microBrain 3D, FLIPR Calcium 6 Assay Kit, Peak Pro 2 analysis); type: cell-based; conditions: neural spheroid; for frequency of primary peaks relative to control: control DMSO; for peaks detected in calcium oscillation trace (primary / secondary peaks): recorded ten minutes after 30 minutes treatment
Description: Human iPSC-derived neural 3D co-cultures (StemoniX® microBrain® 3D platform) have been developed as a high-throughput screening platform that more closely resembles the constitution of native human cortical brain tissue. Neural spheroid 3D co-cultures are a physiologically relevant co-culture of iPSC-derived, functionally-active cortical glutamatergic and GABAergic neurons co-differentiated and matured with astrocytes from the same donor. 3D neural spheroids contain a neural network enriched in synapses, creating a highly functional neuronal circuitry and display spontaneous synchronized, readily detectable calcium oscillations.
The neuronal cells in the microBrain® 3D spheroids generate spontaneous synchronized calcium oscillations. Fast kinetic fluorescence imaging by the FLIPR® Penta® system was employed to measure the patterns and frequencies of Ca^2+ oscillations of neuro-spheroids, as monitored by changes in intracellular Ca^2+ levels with the FLIPR® Calcium 6 Assay Kit. A set of known neuromodulators was tested, including agonists and antagonists of NMDA, GABA and AMPA receptors; kainic acid; and analgesic and anti-epileptic drugs. The fluorescence from each well of an entire 384-well plate was recorded simultaneously at a frequency of 2 Hz (0.5 second sampling interval) by high-speed imaging using the FLIPR® Penta® system.
Advanced analysis methods implemented in the ScreenWorks® Peak Pro™ 2 software module provide multi-parametric characterization of Ca^2+ flux oscillation patterns. This phenotypic assay creates readouts such as oscillation frequency, amplitude, peak width, peak rise and decay times, and peak amplitude/spacing irregularity. The effects of modulators of neuronal activity were evaluated by measuring changes in several measurements.
A set of over twenty compounds, including a number of known modulators of neuronal activity, was assayed at different time points and concentrations, and the EC50 values were calculated for compound effects. The time points included 0, 15, 30, 60, 90, and 120 minutes, and 24 hours.

[2] = system: human iPSC-derived cardiomyocytes; assay: Calcium oscillation assay in iPSC-derived cardiomyocytes (FLIPR Penta, EarlyTox Cardiotoxicity Kit, Peak Pro 2 analysis); type: cell-based; conditions: for peaks detected in calcium oscillation trace (primary / secondary peaks): recorded two minutes after thirty minutes treatment; for spacing of primary peaks / primary peak prolongation: after thirty minutes treatment
Experimental: Development of biologically relevant and predictive cell-based assays for compound screening and toxicity assessment is a major challenge in drug discovery. The focus of this study was to establish high-throughput-compatible cardiotoxicity assays using human-induced pluripotent stem cell (iPSC)-derived cardiomyocytes. To assess the utility of human iPSC-derived cardiomyocytes as an in vitro pro-arrhythmia model, the concentration dependence and responses were evaluated for 28 drugs linked to low, intermediate, and high torsades de pointes (TdP) risk categories. […] This assay allows for the characterization of parameters such as beating frequency, amplitude, peak width, and rise and decay times. […] The iPSC-derived cardiomyocytes generate spontaneous synchronized calcium oscillations. High speed fluorescence imaging with the FLIPR® Penta® System was used to measure the patterns and frequencies of the Ca^2+ oscillations in cardiomyocytes as monitored by changes in intracellular Ca^2+ levels with the EarlyToxTM Cardiotoxicity Kit. A set of 28 known cardiotoxic compounds, plus several benchmark compounds and negative controls, were tested in the assay. iPSC-derived Cardiomyocytes: Cryopreserved human iPSC-derived cells from Cellular Dynamics International (CDI) iCell® Cardiomyocytes2 were used for experiments. Cells were thawed and plated at 20,000/well (96-well format) or 10,000/well into 384-well format plates (Corning) and incubated for 7 days in maintenance media. […] In addition, assay-ready 384-Well plates with cardiomyocytes1 were obtained from […], Inc. Plates were shipped pre-plated and allowed to recover after arrival for 2 days. […] The FLIPR® Penta® System equipped with a new high speed camera allows better resolution of calcium oscillation patterns in cardiomyocytes. The ScreenWorks® Peak ProTM 2 software allows complex event analysis and detailed characterization of patterns using more than 20 available pattern descriptors. The assay can be used for testing developing drugs and screening chemicals for potential cardiotoxic hazards.

[3] = 10 μM, after 30 minutes treatment
[4] = 0.3 μM, after 30 minutes treatment

SMILES: Nc1ccncc1 [4-aminopyridine]
- frequency of primary peaks relative to control ([1]; 30 μM, after 30 minutes treatment): increased relative to control
- peaks detected in calcium oscillation trace (primary / secondary peaks) ([1]; 30 μM): Primary peaks 118 and secondary peaks 150 are detected

SMILES: NCCCC(=O)O [GABA]
- frequency of primary peaks relative to control [1, 3]: significantly lower frequency than control
- peaks detected in calcium oscillation trace (primary / secondary peaks) ([1]; 10 μM): Only primary peaks 118 are detected

SMILES: COc1ccc(CCN2CCC(Nc3nc4ccccc4n3Cc3ccc(F)cc3)CC2)cc1 [astemizole]
- peaks detected in calcium oscillation trace (primary / secondary peaks) ([2]; 1 μM): No valid peaks are detected

SMILES: NCC(CC(=O)O)c1ccc(Cl)cc1 (stereo not shown) [baclofen]
- spacing and amplitude regularity of primary peaks [1, 3]: irregular spacing and amplitude
- frequency of primary peaks relative to control [1, 3]: significantly lower frequency than control
- peaks detected in calcium oscillation trace (primary / secondary peaks) ([1]; 10 μM): Only primary peaks 118 are detected

SMILES: CN(CCOc1ccc(NS(C)(=O)=O)cc1)CCc1ccc(NS(C)(=O)=O)cc1 [dofetilide]
- spacing of primary peaks ([2]; 10 μM): irregular spacing

SMILES: CCCCCCCN(CC)CCCC(O)c1ccc(NS(C)(=O)=O)cc1 (stereo not shown) [ibutilide]
- primary peak prolongation ([2]; 1 μM): prolongated
- peaks detected in calcium oscillation trace (primary / secondary peaks) ([2]; 1 μM): Primary peaks 118 and secondary peaks 150 are present

SMILES: C=C(C)[C@H]1CN[C@H](C(=O)O)[C@H]1CC(=O)O [kainic acid]
- frequency of primary peaks relative to control ([1]; 1 μM, after 30 minutes treatment): increased relative to control
- peaks detected in calcium oscillation trace (primary / secondary peaks) ([1]; 1 μM): Primary peaks 118 and numerous secondary peaks 150 are detected

SMILES: C=C[C@H]1C[N@@]2CC[C@H]1C[C@@H]2[C@@H](O)c1ccnc2ccc(OC)cc12 [quinidine]
- primary peak prolongation ([2]; 10 μM): prolongated
- spacing of primary peaks ([2]; 10 μM): irregular spacing
- peaks detected in calcium oscillation trace (primary / secondary peaks) ([2]; 10 μM): Primary peaks 118 and secondary peaks 150 are detected

SMILES: CC(C)NCC(O)c1ccc(NS(C)(=O)=O)cc1 (stereo not shown) [sotalol]
- primary peak prolongation ([2]; 10 μM): prolongated
- spacing of primary peaks ([2]; 10 μM): irregular spacing
- peaks detected in calcium oscillation trace (primary / secondary peaks) ([2]; 10 μM): Primary peaks 118 and secondary peaks 150 are detected

SMILES: CC(C)[C@@H]1NC(=O)[C@H](C)OC(=O)[C@@H](C(C)C)NC(=O)[C@@H](C(C)C)OC(=O)[C@H](C(C)C)NC(=O)[C@H](C)OC(=O)[C@@H](C(C)C)NC(=O)[C@@H](C(C)C)OC(=O)[C@H](C(C)C)NC(=O)[C@H](C)OC(=O)[C@@H](C(C)C)NC(=O)[C@@H](C(C)C)OC1=O [valinomycin]
- amplitude and spacing regularity of primary peaks [1, 4]: much more variable
- frequency of primary peaks relative to control [1, 4]: much less than control
- peaks detected in calcium oscillation trace (primary / secondary peaks) ([1]; 0.3 μM): Primary peaks 118 and secondary peaks 150 are detected
